Read-outs that look alike come from different tables or passages of the source. Marks after values point to notes of the source that are not given here.
Legend:
[1] = clinical; settings: female, human, in vivo
[2] = female, human, in vivo
[3] = test system: HIV-1 RNA; assay: Plasma viral load and infant HIV infection status; format: in vivo, human; settings: for Undetectable (<20, 50, 75 or 400) plasma HIV-1 RNA, N (%): atazanavir/ritonavir-based regimen
[4] = human, in vivo
[5] = One-compartment model with first-order absorption and elimination; format: in vivo, human; settings: median
[6] = clinical; settings: female, human, in vivo; remark: listed apart in the source
[7] = cited from earlier work
[8] = with tenofovir, median (range), N=19

COC(=O)N[C@H](C(=O)N[C@@H](Cc1ccccc1)[C@@H](O)CN(Cc1ccc(-c2ccccn2)cc1)NC(=O)[C@@H](NC(=O)OC)C(C)(C)C)C(C)(C)C [Atazanavir]
Tmax [1]: 4 h
Grade 3 or 4 hyperbilirubinemia [2]: 14 subjects
Grade 3 or 4 toxicities [2]: 16 subjects
infants HIV-uninfected ([3]; 38 infants, status indeterminate for one): Thirty-seven
Undetectable (<20, 50, 75 or 400) plasma HIV-1 RNA, N (%) ([3]; delivery, with tenofovir): 17 (89%) ^‡
Undetectable (<20, 50, 75 or 400) plasma HIV-1 RNA, N (%) ([3]; delivery, with tenofovir, listed as atazanavir): 17 of 19
Undetectable (<20, 50, 75 or 400) plasma HIV-1 RNA, N (%) ([3]; delivery, without tenofovir): 11 (69%) ^†
Undetectable (<20, 50, 75 or 400) plasma HIV-1 RNA, N (%) ([3]; delivery, without tenofovir, listed as atazanavir): 11 of 16
Undetectable (<20, 50, 75 or 400) plasma HIV-1 RNA, N (%) ([3]; postpartum, with tenofovir): 14 (100%) ^++
Undetectable (<20, 50, 75 or 400) plasma HIV-1 RNA, N (%) ([3]; postpartum, without tenofovir): 8 (73%) ^+
Undetectable (<20, 50, 75 or 400) plasma HIV-1 RNA, N (%) ([3]; third trimester, with tenofovir): 15 (79%) ^§
Undetectable (<20, 50, 75 or 400) plasma HIV-1 RNA, N (%) ([3]; third trimester, without tenofovir): 13 (72%) ^**
Postpartum plasma HIV-1 RNA ([3]; with tenofovir, median (range), N=14): <75 (<20 - <400) copies/mL
Delivery plasma HIV-1 RNA [3, 8]: <75 (<20 – 116) copies/mL
third trimester plasma HIV-1 RNA [3, 8]: <50 (<20 – 1630) copies/mL
Delivery plasma HIV-1 RNA ([3]; without tenofovir, median (range), N=16): <62.5 (<50 - 29933) copies/mL
third trimester plasma HIV-1 RNA ([3]; without tenofovir, median (range), N=18): <62.5 (<50 - 19314) copies/mL
additional reduction of AUC0-24 and Cmin when coadministered with tenofovir ([4]; female): 25%
CL/F, one-compartment ([5]; with tenofovir, postpartum): 7.2 L/h
CL/F, one-compartment ([5]; with tenofovir, second trimester): 14.5 L/h
CL/F, one-compartment ([5]; with tenofovir, third trimester): 9.9 L/h
CL/F, one-compartment ([5]; without tenofovir, postpartum): 4.9 L/h
CL/F, one-compartment ([5]; without tenofovir, second trimester): 3.1 L/h
CL/F, one-compartment ([5]; without tenofovir, third trimester): 6.7 L/h
Kp [6]: 0.18
concentration in cord blood [6]: 0.16 (<0.047 – 0.42) mcg/mL
concentration in maternal delivery plasma [6]: 0.83 (0.11 - 2.36) mcg/mL
ratio of concentration in cord blood to that in maternal delivery plasma [6]: 0.18 (0.04 – 0.45)
estimated 10th percentile AUC0-24 ([7]; non-pregnant adult populations, standard dose): 29400 ng·h/mL
mean AUC ([7]; non-pregnant historical controls taking the standard dose): 57000 ng·h/mL
geometric mean AUC ([7]; nonpregnant HIV infected adults): 46100 ng·h/mL
AUC ([7]; postpartum, ref Eley, 10): 57200 ng·h/mL
mean AUC ([7]; postpartum, ref Ripamonti, 9): 30500 ng·h/mL
geometric mean AUC ([7]; third trimester, 12 women, ref Eley et al, 10): 26600 ng·h/mL

CC(C)c1nc(CN(C)C(=O)N[C@H](C(=O)N[C@@H](Cc2ccccc2)C[C@H](O)[C@H](Cc2ccccc2)NC(=O)OCc2cncs2)C(C)C)cs1 [Ritonavir]
Tmax [1]: 6 h
Tmax ([4]; female): 4 (2 – 4) hr
Vd/F ([4]; female): 34.2 L
AUC0-24, C0, Cmax and C24 during the 3rd trimester compared to postpartum [4]: decreased
CL/F [4]: 6.8 L/h
Cl/F during the 3rd trimester compared to postpartum [4]: increased

CC(C)(C)NC(=O)[C@@H]1CN(Cc2cccnc2)CCN1C[C@@H](O)C[C@@H](Cc1ccccc1)C(=O)N[C@H]1c2ccccc2C[C@H]1O [indinavir]
AUC lower during pregnancy compared to postpartum ([7]; unboosted): 68%

Cc1cccc(C)c1OCC(=O)N[C@@H](Cc1ccccc1)[C@@H](O)C[C@H](Cc1ccccc1)NC(=O)[C@H](C(C)C)N1CCCNC1=O [lopinavir]
AUC reduction during the third trimester ([7]; capsules at standard dosing (lopinavir 400 mg/ritonavir 100 mg twice daily)): 50%

CC(C)(C)NC(=O)[C@@H]1C[C@@H]2CCCC[C@@H]2CN1C[C@@H](O)[C@H](Cc1ccccc1)NC(=O)[C@H](CC(N)=O)NC(=O)c1ccc2ccccc2n1 [saquinavir]
pregnant subjects achieving adequate trough concentrations ([7]; saquinavir 1200 mg/ritonavir 100 mg once daily): 93%

Reference: PMC3125419 (Journal of acquired immune deficiency syndromes (1999), 2011)
